Results from patent publication US11807650B2, “NMDA receptor modulators and uses thereof” (Novartis AG, priority 2016, dated 2023).

biological target: T1, human GRIN1 (transcript variant NR1-3) and GRIN2D expressed in Xenopus oocytes (Homo sapiens, UniProt O15399); test: NR2D oocyte potentiation assay (two-electrode voltage clamp); assay type: cell-based; conditions: 10 uM test compound; glutamate and glycine 10 μM each; holding potential −40 mV
T1 construct: GenScript (GRIN2D synthesis) SC115601; host or cells: Xenopus oocytes injected with cRNA (1 GluN1 : 2 GluN2)
T1 sequence (O15399 28-1336, other chains not shown): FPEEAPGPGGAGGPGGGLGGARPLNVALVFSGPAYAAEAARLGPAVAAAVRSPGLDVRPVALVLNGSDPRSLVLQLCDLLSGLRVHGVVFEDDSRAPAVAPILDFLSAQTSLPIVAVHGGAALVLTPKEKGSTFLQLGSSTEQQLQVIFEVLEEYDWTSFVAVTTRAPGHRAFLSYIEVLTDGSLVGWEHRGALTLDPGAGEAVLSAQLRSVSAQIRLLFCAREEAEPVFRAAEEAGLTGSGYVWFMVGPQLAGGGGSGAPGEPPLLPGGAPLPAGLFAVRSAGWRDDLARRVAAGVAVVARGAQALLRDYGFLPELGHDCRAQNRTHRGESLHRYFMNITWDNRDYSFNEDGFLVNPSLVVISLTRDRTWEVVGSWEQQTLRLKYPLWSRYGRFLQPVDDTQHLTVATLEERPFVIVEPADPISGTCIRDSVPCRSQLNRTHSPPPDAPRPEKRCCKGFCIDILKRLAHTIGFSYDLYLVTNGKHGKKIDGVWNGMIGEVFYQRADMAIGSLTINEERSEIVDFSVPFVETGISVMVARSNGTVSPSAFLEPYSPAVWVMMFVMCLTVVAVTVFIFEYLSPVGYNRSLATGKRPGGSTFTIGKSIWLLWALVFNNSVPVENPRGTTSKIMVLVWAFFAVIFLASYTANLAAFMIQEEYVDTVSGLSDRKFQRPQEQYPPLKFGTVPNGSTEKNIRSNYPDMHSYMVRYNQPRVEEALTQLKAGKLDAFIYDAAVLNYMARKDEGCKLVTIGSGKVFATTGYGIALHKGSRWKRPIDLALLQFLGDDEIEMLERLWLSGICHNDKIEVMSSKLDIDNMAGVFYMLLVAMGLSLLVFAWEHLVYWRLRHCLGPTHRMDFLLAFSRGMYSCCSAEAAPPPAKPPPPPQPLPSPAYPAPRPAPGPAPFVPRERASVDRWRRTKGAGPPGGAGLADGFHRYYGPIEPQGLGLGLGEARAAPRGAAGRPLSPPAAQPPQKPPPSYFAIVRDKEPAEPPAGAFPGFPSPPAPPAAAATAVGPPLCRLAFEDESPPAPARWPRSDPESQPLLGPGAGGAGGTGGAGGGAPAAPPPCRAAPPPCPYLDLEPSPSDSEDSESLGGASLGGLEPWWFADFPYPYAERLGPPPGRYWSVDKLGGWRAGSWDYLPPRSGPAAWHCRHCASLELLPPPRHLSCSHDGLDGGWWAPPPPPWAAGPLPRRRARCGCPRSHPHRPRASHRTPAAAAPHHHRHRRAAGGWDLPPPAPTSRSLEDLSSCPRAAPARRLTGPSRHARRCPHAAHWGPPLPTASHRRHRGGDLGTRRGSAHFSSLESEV
Summary of the method: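 Xenopus oocytes were defolliculated with collagenase, then injected with 50 nL of cRNA encoding human GluN1 (NR1-3 variant) and GluN2D mixed 1:2 and kept 72 h at 16° C. Two-electrode voltage clamp at −40 mV recorded currents; after 10 μM glutamate plus 10 μM glycine reached plateau, test compound was added until a new plateau formed.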

SMILES | activation at 10 µM | NR2D Oocyte % Potentiation @ 10 uM
COCOCC1CSc2nc(-c3cnc(C(C)(C)C)c(F)c3)c(C#N)c(=O)n2C1 (stereo not shown) [Example 170, 8-(6-(tert-butyl)-5-fluoropyridin-3-yl)-3-((methoxymethoxy)methyl)-6-oxo-3,4-dihydro-2H,6H-pyrimido[2,1-b][1,3]thiazine-7-carbonitrile] | > 1000% | –
C[C@@H]1CSc2nc(-c3cnc(C(C)(C)C)c(F)c3)c(C#N)c(=N)n2C1 [Example 113, (S)-8-(6-(tert-butyl)-5-fluoropyridin-3-yl)-6-imino-3-methyl-3,4-dihydro-2H,6H-pyrimido[2,1-b][1,3]thiazine-7-carbonitrile] | > 1000% | –
CC1CSc2nc(-c3ccc(C4(C)CC4)nc3)c(C#N)c(=O)n2C1 (stereo not shown) [Example 108, 3-methyl-8-(6-(1-methylcyclopropyl)pyridin-3-yl)-6-oxo-3,4-dihydro-2H,6H-pyrimido[2,1-b][1,3]thiazine-7-carbonitrile] | 500 to 1000% | –
CCN1CSc2nc(-c3cnc(C(C)(C)C)nc3)c(C#N)c(=O)n2C1 [Example 11, 8-(2-(tert-butyl)pyrimidin-5-yl)-3-ethyl-6-oxo-3,4-dihydro-2H,6H-pyrimido[2,1-b][1,3,5]thiadiazine-7-carbonitrile] | 10 to 100% | –
CC(C)(C)c1ncc(-c2nc3n(c(=O)c2C#N)C[C@H](CF)CS3)cn1 [Example 142, (R)-8-(2-(tert-butyl)pyrimidin-5-yl)-3-(fluoromethyl)-6-oxo-3,4-dihydro-2H,6H-pyrimido[2,1-b][1,3]thiazine-7-carbonitrile] | 500 to 1000% | –
COc1cc(C(C)(C)C)ccc1-c1nc2n(c(=O)c1C#N)CCCS2 [Example 193, 8-(4-tert-butyl-2-methoxyphenyl)-6-oxo-2H,3H,4H,6H-pyrimido[2,1-b][1,3]thiazine-7-carbonitrile] | 100 to 500% | –
COc1cc(-c2nc3n(c(=O)c2C#N)CC(C)CS3)cnc1C(C)(C)C (stereo not shown) [Example 59, 8-(6-(tert-butyl)-5-methoxypyridin-3-yl)-3-methyl-6-oxo-3,4-dihydro-2H,6H-pyrimido[2,1-b][1,3]thiazine-7-carbonitrile] | > 1000% | –
C[C@@H]1CSc2nc(-c3ccc(C4(C)CC4)nc3)c(C#N)c(=O)n2C1 [Example 116, (S)-3-methyl-8-(6-(1-methylcyclopropyl)pyridin-3-yl)-6-oxo-3,4-dihydro-2H,6H-pyrimido[2,1-b][1,3]thiazine-7-carbonitrile] | > 1000% | –
CC1CSc2cc(-c3ccc(C4(C)CC4)nc3)c(C#N)c(=O)n2C1 (stereo not shown) [Example 72, 3-methyl-8-(6-(1-methylcyclopropyl)pyridin-3-yl)-6-oxo-3,4-dihydro-2H,6H-pyrido[2,1-b][1,3]thiazine-7-carbonitrile] | > 1000% | –
C=C(C)c1ccc(-c2nc3n(c(=O)c2C#N)CCCS3)cn1 [Example 95, 6-oxo-8-(6-(prop-1-en-2-yl)pyridin-3-yl)-3,4-dihydro-2H,6H-pyrimido[2,1-b][1,3]thiazine-7-carbonitrile] | 100 to 500% | –

The next lines start with the values.

activation at 10 µM | NR2D Oocyte % Potentiation @ 10 uM | SMILES
100 to 500% | – | Cc1csc2nc(-c3ccc(C(C)(C)C)nc3)c(C#N)c(=O)n12 [Example 35, 7-(6-(tert-butyl)pyridin-3-yl)-3-methyl-5-oxo-5H-thiazolo[3,2-a]pyrimidine-6-carbonitrile]
> 1000% | – | CC1CSc2cc(-c3ccc(C(C)(C)C)nc3)c(C#N)c(=O)n2C1 (stereo not shown) [Example 69, 8-(6-(tert-butyl)pyridin-3-yl)-3-methyl-6-oxo-3,4-dihydro-2H,6H-pyrido[2,1-b][1,3]thiazine-7-carbonitrile]
10 to 100% | – | CN1CSc2nc(-c3ccc(C(C)(C)C)nc3)c(C#N)c(=O)n2C1 [Example 8, 8-(6-(tert-butyl)pyridin-3-yl)-3-methyl-6-oxo-3,4-dihydro-2H,6H-pyrimido[2,1-b][1,3,5]thiadiazine-7-carbonitrile]
500 to 1000% | – | CC(C)(C)c1ccc(-c2nc3n(c(=O)c2C#N)CC(CO)CS3)cn1 (stereo not shown) [Example 87, 8-(6-(tert-butyl)pyridin-3-yl)-3-(hydroxymethyl)-6-oxo-3,4-dihydro-2H,6H-pyrimido[2,1-b][1,3]thiazine-7-carbonitrile]
10 to 100% | – | CC(C)(C)c1ccc(-c2nc3n(c(=O)c2Br)CCCC3)cn1 [Example 15, 3-bromo-2-(6-tert-butylpyridin-3-yl)-4H,6H, 7H,8H,9H-pyrido[1,2-a] pyrimidin-4-one]
500 to 1000% | – | C[C@@H]1CSc2nc(-c3cnc(C(C)(C)C)c(O)c3)c(C#N)c(=O)n2C1 [Example 140, (S)-8-(6-(tert-butyl)-5-hydroxypyridin-3-yl)-3-methyl-6-oxo-3,4-dihydro-2H,6H-pyrimido[2,1-b][1,3]thiazine-7-carbonitrile]
– | Inhibitor | CCOC(C)(C)c1ccc(-c2nc3n(c(=O)c2C#N)CCCS3)cn1 [Example 122, 8-(6-(2-ethoxypropan-2-yl)pyridin-3-yl)-6-oxo-3,4-dihydro-2H,6H-pyrimido[2,1-b][1,3]thiazine-7-carbonitrile]
500 to 1000% | – | COc1cc(-c2nc3n(c(=O)c2C#N)CCCS3)cnc1C(C)(C)C [Example 60, 8-(6-(tert-butyl)-5-methoxypyridin-3-yl)-6-oxo-3,4-dihydro-2H,6H-pyrimido[2,1-b][1,3]thiazine-7-carbonitrile]
> 1000% | – | C[C@H]1CSc2nc(-c3cnc(C(C)(C)C)nc3)c(C#N)c(=O)n2C1 [Example 73, (R)-8-(2-(tert-butyl)pyrimidin-5-yl)-3-methyl-6-oxo-3,4-dihydro-2H,6H-pyrimido[2,1-b][1,3]thiazine-7-carbonitrile]
10 to 100% | – | COC(C)(C)c1ccc(-c2nc3n(c(=O)c2C#N)CC(C)CS3)cn1 (stereo not shown) [Example 119, 8-(6-(2-methoxypropan-2-yl)pyridin-3-yl)-3-methyl-6-oxo-3,4-dihydro-2H,6H-pyrimido[2,1-b][1,3]thiazine-7-carbonitrile]
> 1000% | – | C[C@@H]1CSc2nc(-c3cnc(C(C)(C)C)c(F)c3)c(C#N)c(=O)n2C1 [Example 99, (S)-8-(6-(tert-butyl)-5-fluoropyridin-3-yl)-3-methyl-6-oxo-3,4-dihydro-2H,6H-pyrimido[2,1-b][1,3]thiazine-7-carbonitrile]
< 10% | – | C[C@@H]1CSc2nc(-c3ccc(C(C)(C)N(C)C)nc3)c(C#N)c(=O)n2C1 [Example 134, (S)-8-(6-(2-(dimethylamino)propan-2-yl)pyridin-3-yl)-3-methyl-6-oxo-3,4-dihydro-2H,6H-pyrimido[2,1-b][1,3]thiazine-7-carbonitrile]
10 to 100% | – | CC(C)(C#N)c1ccc(-c2nc3n(c(=O)c2C#N)CCCS3)cn1 [Example 78, 8-(6-(2-cyanopropan-2-yl)pyridin-3-yl)-6-oxo-3,4-dihydro-2H,6H-pyrimido[2,1-b][1,3]thiazine-7-carbonitrile]
< 10% | – | CN(C)C(C)(C)c1ccc(-c2nc3n(c(=O)c2C#N)CCCS3)cn1 [Example 128, 8-(6-(2-(dimethylamino)propan-2-yl)pyridin-3-yl)-6-oxo-3,4-dihydro-2H,6H-pyrimido[2,1-b][1,3]thiazine-7-carbonitrile]
500 to 1000% | – | CC(C)(C)c1ccc(-c2nc3n(c(=O)c2C#N)CC(CF)CS3)cn1 (stereo not shown) [Example 88, 8-(6-(tert-butyl)pyridin-3-yl)-3-(fluoromethyl)-6-oxo-3,4-dihydro-2H,6H-pyrimido[2,1-b][1,3]thiazine-7-carbonitrile]
